# Measurements as given in the supplement of paper PMC10307832.
# Columns and labels:
# Test in all cases: relative viability (nuclei count vs DMSO), 5 days (fraction); higher = more cells survive
# [1] = compound: C1CSC2=C(C(=O)N1)SC3=C2C=C(C=C3)O [kb NB 142-70] + C[C@]1(O)C[C@@H](c2nc(-c3ccc4ccc(-c5ccccc5)nc4c3)c3c(N)nccn32)C1 [Linsitinib] (partner 1 µM)
# Procedure, shortened: (§1)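 Relative viability was taken as the ratio of nuclei in treated wells to nuclei in vehicle wells. Lung cancer cell lines in 1536-well plates received compounds by pin tool one day after seeding, either one drug alone or a fixed anchor-drug dose plus five library-drug doses (not always all listed) in √10 steps. Nuclei were counted on 4× images after 5 days of treatment, and values are medians of duplicate plates.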
# [2] = compound: C1CSC2=C(C(=O)N1)SC3=C2C=C(C=C3)O [kb NB 142-70] + Cc1cc(Nc2cc(N3CCN(C)CC3)nc(Sc3ccc(NC(=O)C4CC4)cc3)n2)n[nH]1 [Tozasertib] (partner 0.1 µM)
# Procedure, shortened: as §1
# [3] = compound: NCC(=O)Nc1ccc(-n2nc(C(F)(F)F)cc2-c2ccc3c(ccc4ccccc43)c2)cc1 + CC1(C)CCC(c2ccc(Cl)cc2)=C(CN2CCN(c3ccc(C(=O)NS(=O)(=O)c4ccc(N[C@H](CCN5CCOCC5)CSc5ccccc5)c(S(=O)(=O)C(F)(F)F)c4)cc3)CC2)C1 [Navitoclax] (partner 0.5 µM)
# Procedure, shortened: as §1
# [4] = compound: NCC(=O)Nc1ccc(-n2nc(C(F)(F)F)cc2-c2ccc3c(ccc4ccccc43)c2)cc1 + Nc1nc2[nH]cc(CCc3ccc(C(=O)N[C@@H](CCC(=O)O)C(=O)O)cc3)c2c(=O)[nH]1 [Pemetrexed] (partner 0.2 µM)
# Procedure, shortened: as §1
Cell Line,relative viability ([1]; first compound 0.1 µM),relative viability ([1]; first compound 1 µM),relative viability ([1]; first compound 3.162 µM),relative viability ([2]; first compound 0.1 µM),relative viability ([2]; first compound 1 µM),relative viability ([2]; first compound 3.162 µM),relative viability ([3]; first compound 0.02 µM),relative viability ([3]; first compound 0.06325 µM),relative viability ([3]; first compound 0.2 µM),relative viability ([3]; first compound 0.6325 µM),relative viability ([3]; first compound 2 µM),relative viability ([4]; first compound 0.02 µM),relative viability ([4]; first compound 0.06325 µM),relative viability ([4]; first compound 0.2 µM),relative viability ([4]; first compound 0.6325 µM),relative viability ([4]; first compound 2 µM)
HCC-44,0.689,0.716,0.658,0.728,0.901,0.722,0.866,0.942,1.02,0.958,0.944,0.634,0.624,0.682,0.657,0.63
HCC-827,0.921,0.992,0.902,0.418,0.429,0.367,0.992,1.04,1.06,1.06,1.01,0.217,0.211,0.277,0.251,0.254
NCI-H1623,–,–,–,0.441,0.433,0.379,–,–,–,–,–,–,–,–,–,–
NCI-H2347,0.975,1.03,1.03,0.69,0.589,0.506,0.771,0.878,1,0.906,0.833,0.403,0.421,0.409,0.432,0.496
PC-14,0.982,0.968,0.955,0.569,0.612,0.531,1.1,0.979,1.15,0.917,1.05,0.131,0.136,–,0.131,0.113
NCI-H1651,1.04,0.929,0.376,0.678,0.748,0.311,1.06,1.11,1.13,0.998,1.01,0.588,0.34,0.577,0.603,0.608
HARA,1.05,0.975,0.631,0.0886,0.112,0.0824,1.24,1.14,1.15,1.16,1.15,0.253,0.241,0.258,0.245,0.246
NCI-H1650,–,–,–,0.47,0.334,0.339,1.25,1.5,1.32,1.1,1.31,0.399,0.423,0.331,0.485,0.38
NCI-H1395,1.15,1.26,0.765,0.724,0.784,0.729,1.12,1.16,1.16,1.11,1.22,0.876,0.896,0.969,0.8,0.894
LU99A,0.519,0.518,0.341,0.285,0.237,0.195,0.756,0.799,0.87,0.891,0.824,0.182,0.153,0.202,0.164,0.168
NCI-H1355,0.781,0.835,0.757,0.577,0.542,0.428,0.921,0.895,1,0.999,0.978,1.06,1.09,1.07,0.963,1.02
HCC-78,0.491,0.569,0.467,0.389,0.468,0.411,0.854,0.868,0.729,0.715,0.908,0.977,0.894,0.884,0.903,0.89
NCI-H1563,1.19,1.19,1.28,–,–,–,–,–,–,–,–,0.801,0.81,0.702,0.722,0.737
HCC-15,0.86,0.89,0.697,0.427,0.471,0.227,0.746,0.731,0.716,0.716,0.693,0.209,0.209,0.212,0.217,0.229
EKVX,0.969,1.01,1.04,0.353,0.382,0.466,0.902,0.969,1.07,0.971,1.03,0.38,0.358,0.408,0.439,0.403
NCI-H2087,1.05,0.956,0.915,0.267,0.201,0.141,0.849,1.11,0.939,0.969,1.03,0.619,0.685,0.681,0.639,0.718
LK-2,0.751,0.384,0.245,0.168,0.167,0.189,1.02,0.862,0.961,0.853,0.757,0.295,0.207,0.294,0.256,0.217
NCI-H1437,1.15,1.1,1.07,0.407,0.421,0.446,1.08,1.12,1.11,1.12,1.11,0.309,0.335,0.35,0.316,0.308
COR-L23,0.953,0.901,0.303,0.237,0.157,0.134,1.1,0.935,1.01,1.07,1,0.197,0.203,0.209,0.169,0.202
ABC-1,0.976,0.984,0.683,0.178,0.165,0.169,–,–,–,–,–,–,–,–,–,–
NCI-H522,–,–,–,0.521,0.565,0.61,–,–,–,–,–,0.968,0.973,0.874,0.86,1.07
NCI-H838,0.993,1.08,0.98,0.29,0.249,0.271,1.19,1.12,1.34,1,1,0.259,0.25,0.253,0.232,0.284
